Data published in US20230148599A1, “FUNGICIDAL MIXTURES CONTAINING PYRAZOLE DERIVATIVES” (FMC Corporation, priority 2020, published 2023).

What was measured:
Format in all cases: in vivo
Septoria tritici [1] = assay: Test A: wheat leaf blotch, preventive spray on wheat seedlings; details: Zymoseptoria tritici, 456 h, 100 = 100% disease control, 0 = no control, read-out: Test A disease control rating
In short: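 Wheat seedlings sprayed to run-off with compound suspended in acetone/water with 250 ppm PEG400 surfactant, inoculated next day with Septoria tritici spores. Held 48 h saturated at 24 °C, then 17 days at 20 °C; disease rated 0–100% control relative to controls.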

[2] = test system: Puccinia recondita f. sp. tritici; assay: Test B: wheat leaf rust, preventive spray on wheat seedlings; details: 192 h, 100 = 100% disease control, 0 = no control, read-out: Test B disease control rating
In short: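 Wheat seedlings were sprayed to run-off with compound suspended at ppm concentrations in acetone/water containing 250 ppm PEG400. The next day they were inoculated with Puccinia recondita f. sp. tritici spores, held saturated at 20 °C for 24 h, then kept 7 days at 20 °C. Disease control was rated 0–100% relative to untreated controls.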

Phakopsora pachyrhizi = assay: Test D: Asian soybean rust, preventive spray on soybean seedlings; details: 216 h, 100 = 100% disease control, 0 = no control, read-out: Test D disease control rating
In short: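 Compounds in acetone/water (50/50) with 250 ppm PEG400, dosed in ppm, sprayed to run-off on soybean seedlings; inoculated with P. pachyrhizi spores next day. Held 24 h at 22 °C in saturated air, then 8 days at 22 °C; visual rating of disease control, 0–100, relative to untreated controls.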

Botrytis cinerea [3] = assay: Test E: tomato Botrytis, preventive spray on tomato seedlings; details: 120 h, 100 = 100% disease control, 0 = no control, read-out: Test E disease control rating
In short: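 Compound suspended in 50/50 acetone/water with 250 ppm PEG400 surfactant and sprayed to run-off on tomato seedlings; Botrytis cinerea spores applied the next day. Incubation 48 h at 20° C in saturated atmosphere, then 3 days at 24° C. Visual rating 0–100% disease control relative to controls.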

Alternaria solani [4] = assay: Test F: tomato early blight, preventive spray on tomato seedlings; details: 120 h, 100 = 100% disease control, 0 = no control, read-out: Test F disease control rating
In short: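 Tomato seedlings were sprayed to run-off with compound suspended in acetone/water (50/50) with 250 ppm PEG400 and inoculated with Alternaria solani spores the next day. Plants were held 48 h at 27 °C in saturated humidity, then 3 days at 20 °C. Disease control was rated visually from 0 to 100 against untreated controls.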

Septoria tritici [5] = assay: Test A1 (comparative): wheat leaf blotch, wheat seedlings; details: 100 = 100% disease control, 0 = no control
Source text: (§1) General protocol for preparing test suspensions for Tests A1-F1: the test compounds were first dissolved in acetone in an amount equal to 3% of the final volume and then suspended at the desired concentration (in ppm) in acetone and purified water (50/50 mix by volume) containing 250 ppm of the surfactant PEG400 (polyhydric alcohol esters). The resulting test suspensions were then used in Tests A1-F1.
(§2) The test solution was sprayed to the point of run-off on wheat seedlings. The following day the seedlings were inoculated with a spore suspension of Septoria tritici (the causal agent of wheat leaf blotch) and incubated in a saturated atmosphere at 24° C. for 48 h, and then moved to a growth chamber at 20° C. for 17 days, after which time disease ratings were made.
(§3) A rating of 100 indicates 100% disease control and a rating of 0 indicates no disease control (relative to the controls).

[6] = test system: Puccinia recondita f. sp. tritici; assay: Test B1 (comparative): wheat leaf rust, wheat seedlings; details: 100 = 100% disease control
Source text: as §1
as §2, with “Puccinia recondita f. sp.” for “Septoria”, “rust)” for “blotch)”, “20°” for “24°”, “24” for “48”, “7” for “17”
as §3

[7] = test system: Blumeria graminis f. sp. tritici; assay: Test C1 (comparative): wheat powdery mildew, wheat seedlings; details: 100 = 100% disease control
Source text: as §1
The test suspension was sprayed to the point of run-off on wheat seedlings. The following day the seedlings were inoculated with a spore dust of Blumeria graminis f. sp. tritici, (also known as Erysiphe graminis f. sp. tritici, the causal agent of wheat powdery mildew) and incubated in a growth chamber at 20° C. for 8 days, after which time visual disease ratings were made.
as §3

Botrytis cinerea [8] = assay: Test E1 (comparative): tomato Botrytis, tomato seedlings; details: 100 = 100% disease control
Source text: as §1
(§4) The test suspension was sprayed to the point of run-off on tomato seedlings. The following day the seedlings were inoculated with a spore suspension of Botrytis cinerea (the causal agent of tomato Botrytis) and incubated in a saturated atmosphere at 20° C. for 48 h, and then moved to a growth chamber at 24° C. for 3 days, after which time visual disease ratings were made.
as §3

Alternaria solani [9] = assay: Test F1 (comparative): tomato early blight, tomato seedlings; details: Rate 10 ppm, 100 = 100% disease control
Source text: as §1
as §4, with “Alternaria solani” for “Botrytis cinerea”, “early blight)” for “Botrytis)”, “27°” for “20°”, “20°” for “24°”
as §3

With `Cc1nn(C)c(Nc2c(F)cccc2[N+](=O)[O-])c1-c1ccc(F)cc1Cl` [Compound 112, 4-(2-chloro-4-fluorophenyl)-N-(2-fluoro-6-nitrophenyl)-1,3-dimethyl-1H-pyrazol-5-amine] as the compound, how does the pest or weed control at 10 ppm (Septoria tritici [1]; 10 ppm) read?
Its pest or weed control at 10 ppm is 72%.

And the pest or weed control at 50 ppm (Septoria tritici [1]; 50 ppm)?
Its pest or weed control at 50 ppm is 88%.

What about the pest or weed control at 10 ppm ([2]; 10 ppm) of the same compound?
Its pest or weed control at 10 ppm is 100%.

What about the pest or weed control at 50 ppm ([2]; 50 ppm) of the same compound?
Its pest or weed control at 50 ppm is 100%.

And the pest or weed control at 10 ppm (Phakopsora pachyrhizi; 10 ppm)?
Its pest or weed control at 10 ppm is 52%.

And the pest or weed control at 50 ppm (Phakopsora pachyrhizi; 50 ppm)?
Its pest or weed control at 50 ppm is 99%.

What about the pest or weed control at 10 ppm (Botrytis cinerea [3]; 10 ppm) of the same compound?
The pest or weed control at 10 ppm was 100%.

And the pest or weed control at 50 ppm (Botrytis cinerea [3]; 50 ppm)?
The pest or weed control at 50 ppm was 100%.

What about the pest or weed control at 10 ppm (Alternaria solani [4]; 10 ppm) of the same compound?
The pest or weed control at 10 ppm was 98%.

What about the pest or weed control at 50 ppm (Alternaria solani [4]; 50 ppm) of the same compound?
Its pest or weed control at 50 ppm is 100%.

What about the “Test A1 disease control rating” value (Septoria tritici [5]; Rate 10 ppm) of the same compound?
The value was 81%.

What about the “Test A1 disease control rating” value (Septoria tritici [5]; Rate 50 ppm) of the same compound?
The value was 100%.

What about the “Test B1 disease control rating” value ([6]; Rate 10 ppm) of the same compound?
The value was 86%.

And the “Test B1 disease control rating” value ([6]; Rate 50 ppm)?
Its value is 100%.

And the “Test C1 disease control rating” value ([7]; Rate 10 ppm)?
Its value is 97%.

What about the “Test C1 disease control rating” value ([7]; Rate 50 ppm) of the same compound?
The value was 98%.

And the “Test E1 disease control rating” value (Botrytis cinerea [8]; Rate 10 ppm)?
Its value is 99%.

And the “Test E1 disease control rating” value (Botrytis cinerea [8]; Rate 50 ppm)?
The value was 99%.

What about the “Test F1 disease control rating” value (Alternaria solani [9]) of the same compound?
Its value is 99%.
